pIC50: −log10 of the molar value.
Tested on: SUM149PT spheroids with HUVEC/MSC, viability
Experiment: Anticancer human tumor SUM149PT cell line growth inhibition [GQUAD];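 also: spheroids exposed to drugs for seven days before readout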;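 as to viability, T/C: percent viability relative to DMSO vehicle control taken as 100%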
Conditions: for pIC50: curve of first compound; for viability, T/C: stronger effect = lower value
Procedure, shortened: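 Tumor cells were grown as complex spheroids with HUVEC endothelial cells and mesenchymal stem cells as stroma. G-quadruplex stabilizers were combined with targeted agents over half-log dilutions from near the clinical Cmax, or from 10 microM.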

[1] = second compound 0.0316 µM, first compound 0.0316 µM
[2] = second compound 0.0316 µM, first compound 0.1 µM
[3] = second compound 0.0316 µM, first compound 0.316 µM
[4] = second compound 0.0316 µM, first compound 1 µM
[5] = second compound 0.0316 µM, first compound 3.16 µM
[6] = second compound 0.0316 µM, first compound 10 µM
[7] = second compound 0.1 µM, first compound 0.0316 µM
[8] = second compound 0.1 µM, first compound 0.1 µM
[9] = second compound 0.1 µM, first compound 0.316 µM
[10] = second compound 0.1 µM, first compound 1 µM
[11] = second compound 0.1 µM, first compound 3.16 µM
[12] = second compound 0.1 µM, first compound 10 µM
[13] = second compound 0.316 µM, first compound 0.0316 µM
[14] = second compound 0.316 µM, first compound 0.1 µM
[15] = second compound 0.316 µM, first compound 0.316 µM
[16] = second compound 0.316 µM, first compound 1 µM
[17] = second compound 0.316 µM, first compound 3.16 µM
[18] = second compound 0.316 µM, first compound 10 µM
[19] = second compound 1 µM, first compound 0.0316 µM
[20] = second compound 1 µM, first compound 0.1 µM
[21] = second compound 1 µM, first compound 0.316 µM
[22] = second compound 1 µM, first compound 1 µM
[23] = second compound 1 µM, first compound 3.16 µM
[24] = second compound 1 µM, first compound 10 µM
[25] = second compound 3.16 µM, first compound 0.0316 µM
[26] = second compound 3.16 µM, first compound 0.1 µM
[27] = second compound 3.16 µM, first compound 0.316 µM
[28] = second compound 3.16 µM, first compound 1 µM
[29] = second compound 3.16 µM, first compound 3.16 µM
[30] = second compound 3.16 µM, first compound 10 µM
[31] = second compound 10 µM, first compound 0.0316 µM
[32] = second compound 10 µM, first compound 0.1 µM
[33] = second compound 10 µM, first compound 0.316 µM
[34] = second compound 10 µM, first compound 1 µM
[35] = second compound 10 µM, first compound 3.16 µM
[36] = second compound 10 µM, first compound 10 µM

SMILES: CC1COCCN1c1cc(-c2ccnn2C)c2ccnc(-c3ccn[nH]3)c2n1 (stereo not drawn) + Cc1[nH]c2ccc(F)cc2c1-c1nc2c3cccnc3c3ncccc3c2[nH]1
- pIC50 (second compound 0.0316 µM): 7.05
- pIC50 (second compound 0.1 µM): 7.02
- pIC50 (second compound 0.316 µM): 6.97
- pIC50 (second compound 1 µM): 6.92
- pIC50 (second compound 3.16 µM): 7.01
- pIC50 (second compound 10 µM): 7.03
- viability, T/C [1]: 90.7%
- viability, T/C [2]: 45.6%
- viability, T/C [3]: 25.8%
- viability, T/C [4]: 26.4%
- viability, T/C [5]: 27%
- viability, T/C [6]: 26.3%
- viability, T/C [7]: 82.7%
- viability, T/C [8]: 48.6%
- viability, T/C [9]: 25.1%
- viability, T/C [10]: 21.8%
- viability, T/C [11]: 28.6%
- viability, T/C [12]: 25.7%
- viability, T/C [13]: 95.1%
- viability, T/C [14]: 51.4%
- viability, T/C [15]: 23.3%
- viability, T/C [16]: 23.9%
- viability, T/C [17]: 25.8%
- viability, T/C [18]: 25.3%
- viability, T/C [19]: 92.4%
- viability, T/C [20]: 54.5%
- viability, T/C [21]: 26.4%
- viability, T/C [22]: 26.4%
- viability, T/C [23]: 24.8%
- viability, T/C [24]: 26.6%
- viability, T/C [25]: 98.2%
- viability, T/C [26]: 48.8%
- viability, T/C [27]: 25.4%
- viability, T/C [28]: 26.2%
- viability, T/C [29]: 25.7%
- viability, T/C [30]: 22.5%
- viability, T/C [31]: 92.7%
- viability, T/C [32]: 47.6%
- viability, T/C [33]: 24.2%
- viability, T/C [34]: 27.4%
- viability, T/C [35]: 23%
- viability, T/C [36]: 24.1%

SMILES: CC1COCCN1c1cc(C2(O)CC3CCC(C2)O3)c2cnn(-c3ccn[nH]3)c2n1 (stereo not drawn) + Cc1[nH]c2ccc(F)cc2c1-c1nc2c3cccnc3c3ncccc3c2[nH]1
- pIC50 (second compound 0.0316 µM): 7.13
- pIC50 (second compound 0.1 µM): 7.11
- pIC50 (second compound 0.316 µM): 7.08
- pIC50 (second compound 1 µM): 7.12
- pIC50 (second compound 3.16 µM): 7.15
- pIC50 (second compound 10 µM): 7.21
- viability, T/C [1]: 74.5%
- viability, T/C [2]: 40.2%
- viability, T/C [3]: 27.5%
- viability, T/C [4]: 23.9%
- viability, T/C [5]: 22%
- viability, T/C [6]: 15.9%
- viability, T/C [7]: 78.9%
- viability, T/C [8]: 40.5%
- viability, T/C [9]: 28.3%
- viability, T/C [10]: 22.6%
- viability, T/C [11]: 23.9%
- viability, T/C [12]: 15.4%
- viability, T/C [13]: 80.9%
- viability, T/C [14]: 45.6%
- viability, T/C [15]: 24.6%
- viability, T/C [16]: 25.5%
- viability, T/C [17]: 25.4%
- viability, T/C [18]: 14.7%
- viability, T/C [19]: 81.8%
- viability, T/C [20]: 40.2%
- viability, T/C [21]: 24.8%
- viability, T/C [22]: 23.5%
- viability, T/C [23]: 23.6%
- viability, T/C [24]: 17.6%
- viability, T/C [25]: 78.4%
- viability, T/C [26]: 38.2%
- viability, T/C [27]: 22.3%
- viability, T/C [28]: 25.8%
- viability, T/C [29]: 23.5%
- viability, T/C [30]: 15.3%
- viability, T/C [31]: 74.9%
- viability, T/C [32]: 32.2%
- viability, T/C [33]: 22.9%
- viability, T/C [34]: 23.1%
- viability, T/C [35]: 24.7%
- viability, T/C [36]: 16.2%

SMILES: CC1COCCN1c1cc(C2(S(C)(=N)=O)CC2)nc(-c2ccnc3[nH]ccc23)n1 (stereo not drawn) + Cc1[nH]c2ccc(F)cc2c1-c1nc2c3cccnc3c3ncccc3c2[nH]1
- pIC50 (second compound 0.0316 µM): 5.62
- pIC50 (second compound 0.1 µM): 5.58
- pIC50 (second compound 0.316 µM): 5.55
- pIC50 (second compound 1 µM): 5.58
- pIC50 (second compound 3.16 µM): 5.61
- pIC50 (second compound 10 µM): 5.66
- viability, T/C [1]: 95.9%
- viability, T/C [2]: 93.6%
- viability, T/C [3]: 99.7%
- viability, T/C [4]: 79.5%
- viability, T/C [5]: 40.5%
- viability, T/C [6]: 17.3%
- viability, T/C [7]: 112%
- viability, T/C [8]: 99.5%
- viability, T/C [9]: 86.7%
- viability, T/C [10]: 89.2%
- viability, T/C [11]: 41.9%
- viability, T/C [12]: 22.6%
- viability, T/C [13]: 103%
- viability, T/C [14]: 105%
- viability, T/C [15]: 89.8%
- viability, T/C [16]: 83.6%
- viability, T/C [17]: 45%
- viability, T/C [18]: 20.6%
- viability, T/C [19]: 91.9%
- viability, T/C [20]: 100%
- viability, T/C [21]: 97.1%
- viability, T/C [22]: 83.9%
- viability, T/C [23]: 43.5%
- viability, T/C [24]: 19.6%
- viability, T/C [25]: 86.5%
- viability, T/C [26]: 84.9%
- viability, T/C [27]: 89.7%
- viability, T/C [28]: 75.4%
- viability, T/C [29]: 42.8%
- viability, T/C [30]: 19%
- viability, T/C [31]: 103%
- viability, T/C [32]: 96.5%
- viability, T/C [33]: 94.3%
- viability, T/C [34]: 79.5%
- viability, T/C [35]: 35.6%
- viability, T/C [36]: 18.3%

SMILES: COc1ccc([C@@H](O)c2cc(-c3ncnc4cc(N5CCOCC5)ccc34)c(F)cc2Cl)nn1 + Cc1[nH]c2ccc(F)cc2c1-c1nc2c3cccnc3c3ncccc3c2[nH]1
- pIC50 (second compound 0.0316 µM): 6.12
- pIC50 (second compound 0.1 µM): 5.97
- pIC50 (second compound 0.316 µM): 5.95
- pIC50 (second compound 1 µM): 5.94
- pIC50 (second compound 3.16 µM): 5.98
- pIC50 (second compound 10 µM): 6.06
- viability, T/C [1]: 95.7%
- viability, T/C [2]: 90.1%
- viability, T/C [3]: 65.6%
- viability, T/C [4]: 45.8%
- viability, T/C [5]: 29.9%
- viability, T/C [6]: 23.9%
- viability, T/C [7]: 92.9%
- viability, T/C [8]: 92.9%
- viability, T/C [9]: 79.3%
- viability, T/C [10]: 52.3%
- viability, T/C [11]: 29.4%
- viability, T/C [12]: 27.6%
- viability, T/C [13]: 104%
- viability, T/C [14]: 87.3%
- viability, T/C [15]: 83%
- viability, T/C [16]: 47.1%
- viability, T/C [17]: 39.4%
- viability, T/C [18]: 28.7%
- viability, T/C [19]: 102%
- viability, T/C [20]: 102%
- viability, T/C [21]: 82.9%
- viability, T/C [22]: 52.4%
- viability, T/C [23]: 32.5%
- viability, T/C [24]: 23.9%
- viability, T/C [25]: 95.2%
- viability, T/C [26]: 78.9%
- viability, T/C [27]: 76.7%
- viability, T/C [28]: 49.8%
- viability, T/C [29]: 31.8%
- viability, T/C [30]: 25.9%
- viability, T/C [31]: 89.8%
- viability, T/C [32]: 82.6%
- viability, T/C [33]: 71.7%
- viability, T/C [34]: 46.3%
- viability, T/C [35]: 30.9%
- viability, T/C [36]: 23.3%

Reference: PubChem BioAssay AID2060484 (Molecular Pharmacology Branch, DTP, NCI, 2025)
